# Tested on: human BMSCs
# Assay: RT-PCR of stemness, differentiation and hepatic marker genes in human BMSCs
# Assay type: cell-based
# Details: human MSCs, GAPDH as normalization, treated 2, 7 and 14 days, combination effect seen during 7 days
# Protocol: The human BMSCs were treated with PBS as control, AuNRs, AuNRs-SP nanocomplex, HGF alone and AuNRs-SP nanocomplex+HGF respectively for 2 days, 7 days and 14 days (Figure 7). Consequently, the expression of stemness gene Oct4, differentiation gene Sox17 and two hepatic marker genes, AFP and ck19 in the human MSCs were analyzed by RT-PCR. Comparing with PBS-treated group and AuNRs-treated group, human MSCs were induced to differentiate by AuNRs-SP nanocomplex with the decreased Oct4 and increased Sox17 (Figure 7A and 7B).
# After human BMSCs were treated with PBS, AuNRs, HGF, AuNRs-SP and AuNRs-SP+HGF for 14 days, total RNA was extracted using TRIzol (Invitrogen, Carlsbad, CA, USA) and was quantitated by Nano Drop 2000. 2 μg total RNA was reverse transcribed to cDNA using a reverse transcriptase kit (Takara, Japan) according to the manufacturer's instructions. The mRNA levels of the target genes were quantified by RT-PCR, using GAPDH as normalization. Primers used in this study: Oct4 forward 5′-GACAACAATGAGAACCTTCAG-3′ and reverse 5′-CTGGCGCCGGTTACAGAACCA-3′; Sox17 forward 5′-GAGCCAAGGGCGAGTCCCGTA-3′ and reverse 5′-CCTTCCACGACTTGCCCAGCA-3′; AFP forward 5′-AGCGAGGAGAAATGGTCCGG-3′ and reverse 5′-GGA CAT CTT CAC CAT GTG-3′; Ck19 forward 5′-GCACTACAGCCACTACTACAC-3′ and reverse 5′-CTC ATG CGC AGA GCC TGT-3′.
substance,measurement,value
HGF: hepatocyte growth factor,expression of hepatic marker gene AFP (mRNA),could not change the expression of AFP and ck19 until 14 days
same,expression of hepatic marker gene ck19 (mRNA),could not change the expression of AFP and ck19 until 14 days

# Source: paper PMC5410289, “Stable H3 peptide was delivered by gold nanorods to inhibit LSD1 activation and induce human mesenchymal stem cells differentiation” (Oncotarget, 2017)
